Reference: patent publication US20260174778A1, “SULFONAMIDE COMPOUND, AND PREPARATION METHOD THEREFOR AND USE THEREOF” (SHANGHAI HENLIUS BIOTECH, INC., priority 2023, published 2026)
Read-outs that look alike come from different tables or passages of the source.

Columns and labels:
KAT7 = biological target: T1, KAT7 (Homo sapiens, UniProt O95251); experiment: Inhibition of human KAT enzymes, radioisotope method: KAT7; assay type: biochemical; settings: for Ki: KAT7 (full-length), radioisotope method; for KAT7/ KAT6A / KAT7/ KAT6B: selectivity, ratio of Ki
T1 construct: purchased ACTIVE MOTIF 31889
Text: (§1) Test Example 2: Selective Inhibitory Effects of Test Compounds on Human KAT6 Enzymes (Radioisotope Method)
(§2) • 1. KAT6A (ACTIVE MOTIF, Cat. No. 81223) • 2. KAT5 (BPS, Cat. No. 79422) • 3. KAT7 (ACTIVE MOTIF, Cat. No. 31889) • 4. KAT6B (ACTIVE MOTIF, Cat. No. 81224) • 5. Acetyl coenzyme A, [Acetyl-^3H, 250 μCi (9.25 MBq](PEIRKIN4 ELMER, Cat. No. NET290250UC) • 6. Acetyl coenzyme A (CAYMVAN, Cat. No. 16160) • 7. 384-well Flashplate (Perkin Elmer, Cat. No. SMP410A001PK) • 8. Garcinol (MCE, Cat. No. HY-107569) • 9. Automatic microplate pipetting system (Precision, PRC384U, BioTek) • 10. Ultrasonic nanoliter liquid handling system (Echo 650 Liquid Handler, Echo 650, Labcyte) • 11. Centrifuge (Avanti J-15R, Beckman Coulter) • 12. Liquid scintillation counter (Microplate Counter, Microbeta2, Perkin Elmer)
(§3) • 1. For KAT6A and KAT7, a 1× assay buffer was prepared as follows: 10 mM Tris-HCl pH 8.0, 0.01% Tween-20, and 1 mM DTT; for KAT6B and KAT5, a 1× assay buffer was prepared as follows: 50 mM Tris-HCl pH 8.0, 0.05% Tween-20, and 1 mM DTT. • 2. Compound preparation: For KAT6A, KAT6B, and KAT7, the final concentration of the compounds started at 1 μM, followed by a 5-fold serial dilution across a total of 7 concentration gradients; for KAT5, the final concentration of the compounds started at 10 μM, followed by a 5-fold serial dilution across a total of 7 concentration gradients. • 3. Substrate reaction solution preparation: The mixed substrates of H4 peptide and [3H]acetyl coenzyme A at final concentrations were prepared using the respective 1× assay buffers, as shown in Table 4.
(§4) • 1. The enzyme solution was transferred to 384-well reaction plates at 10 μL/well. For each negative control well, 10 μL of the 1× assay buffer was transferred. The plates were then centrifuged at 1000 RPM for 1 min and incubated at room temperature for 15 min. • 2. The substrate reaction solution was added at 10 μL/well, and the plates were centrifuged at 1000 RPM for 1 min to start the reaction. • 3. The samples for KAT6A, KAT6B, KAT7, KAT8, and KAT5 were then incubated at room temperature for 60 min, 120 min, 45 min, 60 min, and 120 min, respectively. • 4. Stop solution preparation: A stop solution was prepared by diluting 50 µM cold Ac-CoA in 1× buffer. • 5. The stop solution was added at 10 μL/well, and the plates were centrifuged at […] for 1 min to stop the reaction. • 6. The mixtures in the reaction plates were transferred at 25 μL/well to new plates (Streptavidin FlashPlate HTS PLUS, High Capacity, 384-well). • 7. The plates were incubated at room temperature for at least 60 min and then • 8. read using MicroBeta2.
(§5) Raw data were obtained in EXCEL, and the inhibition rates were calculated:
(§6) [formula] [formula] • Max signal: reaction signal from enzyme and substrate; • Sample signal: signal from sample; • Min signal: signal from substrate only (negative control).
(§7) The inhibition rate data were imported into XLFit Excel, and IC50 values were obtained using formula (2):
(§8) [formula] [formula] • Top: value of the top plateau of the fitted regression curve; • Bottom: value of the bottom plateau of the fitted regression curve; • HillSlope: slope of the fitted regression curve.
(§9) The IC50 value was substituted into formula (3) to obtain the enzymatic activity inhibition constant Ki:
(§10) [formula] • [S]: substrate concentration; Km: Michaelis constant.

[1] = Pharmacokinetics in SD (Sprague Dawley) rats; assay type: in vivo; settings: rat, plasma, female SD rats; for clearance: read-out: CL (clearance rate); for half-life: read-out: T1/2 (half-life) (converted); for Vd: read-out: Vdss (apparent volume of distribution); for bioavailability: read-out: F (bioavailability)
Procedure: Test Example 3: Determination of Pharmacokinetic Data of Compounds in SD (Sprague Dawley) Rats
The pharmacokinetic characteristics of some of the compounds of the present disclosure were evaluated by a pharmacokinetic experiment in SD rats.
Female SD rats aged 6-8 weeks from Shanghai Jihui Laboratory Animal Care Co., Ltd. were selected. The test animals were fasted overnight before administration, and feeding was resumed 4 h after administration. The compounds were dissolved in 5% DMSO+5% Tween 80+90% normal saline. For a single intravenous administration, the administration dose was 1 mg/kg, and the administration volume was 2 mL/kg. For a single intragastric administration, the administration dose was 2 mg/kg, and the administration volume was 10 mL/kg. Blood was collected at 0.083 h (for intravenous administration only), 0.25 h, 0.5 h, 1 h, 2 h, 4 h, 8 h, and 24 h after administration. At each indicated time point, about 150 μL of blood sample was collected from each rat via the vein and placed into an EDTA-K2 tube. Each sample was centrifuged (2000 g, 4° C., 5 min) within 15 min after sample collection to obtain plasma, which was then stored at −70° C. until analysis. The concentration of the corresponding test compound in the SD rat plasma was determined using UPLC-MS/MS.

KAT5 = biological target: T2, KAT5 (Homo sapiens, UniProt Q92993); experiment: Inhibition of human KAT enzymes, radioisotope method: KAT5; assay type: biochemical; settings: for Ki: KAT5 (full-length), radioisotope method; for KAT5/ KAT6A / KAT5/ KAT6B: selectivity, ratio of Ki
T2 construct: purchased BPS 79422
T2 sequence (Q92993 whole entry): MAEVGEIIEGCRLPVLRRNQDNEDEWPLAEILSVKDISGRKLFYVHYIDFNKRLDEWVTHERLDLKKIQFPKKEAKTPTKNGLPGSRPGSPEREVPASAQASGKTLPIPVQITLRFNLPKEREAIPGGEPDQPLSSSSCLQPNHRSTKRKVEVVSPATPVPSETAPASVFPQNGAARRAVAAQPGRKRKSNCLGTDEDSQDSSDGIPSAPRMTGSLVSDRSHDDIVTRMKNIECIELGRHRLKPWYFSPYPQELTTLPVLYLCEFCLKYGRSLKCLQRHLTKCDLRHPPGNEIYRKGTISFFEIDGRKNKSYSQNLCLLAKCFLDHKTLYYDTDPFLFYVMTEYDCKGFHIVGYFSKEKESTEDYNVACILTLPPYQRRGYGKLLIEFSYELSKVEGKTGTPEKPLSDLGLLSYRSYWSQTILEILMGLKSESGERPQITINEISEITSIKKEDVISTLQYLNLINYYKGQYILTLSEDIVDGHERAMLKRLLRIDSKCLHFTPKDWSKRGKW
Text: as §1, §2, §3, §4, §5, §6, §7, §8, §9, §10

KAT6B = biological target: T3, KAT6B (Homo sapiens, UniProt Q8WYB5); experiment: Inhibition of human KAT enzymes, radioisotope method: KAT6B; assay type: biochemical; settings: KAT6B (718-1008)
T3 construct: purchased ACTIVE MOTIF 81224
T3 sequence (Q8WYB5 whole entry): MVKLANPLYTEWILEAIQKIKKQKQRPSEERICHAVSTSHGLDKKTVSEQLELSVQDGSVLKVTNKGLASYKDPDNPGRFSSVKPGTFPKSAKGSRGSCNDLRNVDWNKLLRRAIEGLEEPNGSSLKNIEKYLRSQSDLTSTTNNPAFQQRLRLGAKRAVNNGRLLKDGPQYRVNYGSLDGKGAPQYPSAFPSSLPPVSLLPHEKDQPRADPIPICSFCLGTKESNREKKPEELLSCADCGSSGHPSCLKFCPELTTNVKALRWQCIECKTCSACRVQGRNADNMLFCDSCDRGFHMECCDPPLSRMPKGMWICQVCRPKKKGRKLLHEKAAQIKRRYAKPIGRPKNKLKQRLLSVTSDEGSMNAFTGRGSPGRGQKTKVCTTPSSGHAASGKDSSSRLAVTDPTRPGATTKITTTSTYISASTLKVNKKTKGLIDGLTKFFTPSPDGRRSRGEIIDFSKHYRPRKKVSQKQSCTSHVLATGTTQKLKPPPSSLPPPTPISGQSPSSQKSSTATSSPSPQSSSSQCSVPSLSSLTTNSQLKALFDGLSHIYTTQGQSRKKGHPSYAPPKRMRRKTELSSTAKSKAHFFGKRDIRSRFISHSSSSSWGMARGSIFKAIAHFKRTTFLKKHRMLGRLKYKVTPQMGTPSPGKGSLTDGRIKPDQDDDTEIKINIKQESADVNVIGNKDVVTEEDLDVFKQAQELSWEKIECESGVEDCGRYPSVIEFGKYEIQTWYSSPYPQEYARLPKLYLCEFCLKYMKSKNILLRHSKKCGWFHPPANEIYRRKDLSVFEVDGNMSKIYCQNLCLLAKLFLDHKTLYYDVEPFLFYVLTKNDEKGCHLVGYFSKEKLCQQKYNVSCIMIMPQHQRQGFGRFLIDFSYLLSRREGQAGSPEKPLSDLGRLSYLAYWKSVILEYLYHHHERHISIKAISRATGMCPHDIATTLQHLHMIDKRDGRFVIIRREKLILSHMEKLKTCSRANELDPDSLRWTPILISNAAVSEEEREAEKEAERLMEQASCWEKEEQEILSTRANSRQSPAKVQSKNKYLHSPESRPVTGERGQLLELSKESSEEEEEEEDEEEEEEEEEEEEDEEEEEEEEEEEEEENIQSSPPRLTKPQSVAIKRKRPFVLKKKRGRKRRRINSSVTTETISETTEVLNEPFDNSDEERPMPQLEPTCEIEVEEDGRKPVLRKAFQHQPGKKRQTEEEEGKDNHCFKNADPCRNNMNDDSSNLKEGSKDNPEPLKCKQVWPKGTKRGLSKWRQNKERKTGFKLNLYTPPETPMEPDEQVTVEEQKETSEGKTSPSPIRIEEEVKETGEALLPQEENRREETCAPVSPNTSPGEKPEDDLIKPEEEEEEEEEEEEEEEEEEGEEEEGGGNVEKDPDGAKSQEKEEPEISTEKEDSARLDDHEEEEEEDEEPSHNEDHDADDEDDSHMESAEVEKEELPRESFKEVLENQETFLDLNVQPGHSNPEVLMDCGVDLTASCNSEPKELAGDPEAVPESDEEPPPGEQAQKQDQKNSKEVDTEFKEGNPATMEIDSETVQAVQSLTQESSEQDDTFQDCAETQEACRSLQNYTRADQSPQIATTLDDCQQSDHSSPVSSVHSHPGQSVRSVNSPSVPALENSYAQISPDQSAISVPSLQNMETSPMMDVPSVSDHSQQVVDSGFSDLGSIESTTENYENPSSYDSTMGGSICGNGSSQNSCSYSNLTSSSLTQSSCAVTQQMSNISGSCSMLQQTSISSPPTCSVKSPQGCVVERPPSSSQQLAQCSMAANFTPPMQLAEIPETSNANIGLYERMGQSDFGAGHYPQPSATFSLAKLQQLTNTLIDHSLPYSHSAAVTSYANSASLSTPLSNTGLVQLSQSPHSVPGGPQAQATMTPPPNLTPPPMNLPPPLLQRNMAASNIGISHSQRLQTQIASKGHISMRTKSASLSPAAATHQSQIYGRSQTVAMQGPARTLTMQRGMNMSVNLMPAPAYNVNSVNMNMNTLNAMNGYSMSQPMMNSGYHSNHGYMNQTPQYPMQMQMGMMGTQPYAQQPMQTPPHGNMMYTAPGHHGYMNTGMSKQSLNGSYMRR
Text: as §1, §2, §3, §4, §5, §6, §7, §8, §9, §10

KAT6A = biological target: T4, KAT6A (Homo sapiens, UniProt Q92794); experiment: Inhibition of human KAT enzymes, radioisotope method: KAT6A; assay type: biochemical; settings: KAT6A (488-778)
T4 construct: purchased ACTIVE MOTIF 81223
T4 sequence (Q92794 whole entry): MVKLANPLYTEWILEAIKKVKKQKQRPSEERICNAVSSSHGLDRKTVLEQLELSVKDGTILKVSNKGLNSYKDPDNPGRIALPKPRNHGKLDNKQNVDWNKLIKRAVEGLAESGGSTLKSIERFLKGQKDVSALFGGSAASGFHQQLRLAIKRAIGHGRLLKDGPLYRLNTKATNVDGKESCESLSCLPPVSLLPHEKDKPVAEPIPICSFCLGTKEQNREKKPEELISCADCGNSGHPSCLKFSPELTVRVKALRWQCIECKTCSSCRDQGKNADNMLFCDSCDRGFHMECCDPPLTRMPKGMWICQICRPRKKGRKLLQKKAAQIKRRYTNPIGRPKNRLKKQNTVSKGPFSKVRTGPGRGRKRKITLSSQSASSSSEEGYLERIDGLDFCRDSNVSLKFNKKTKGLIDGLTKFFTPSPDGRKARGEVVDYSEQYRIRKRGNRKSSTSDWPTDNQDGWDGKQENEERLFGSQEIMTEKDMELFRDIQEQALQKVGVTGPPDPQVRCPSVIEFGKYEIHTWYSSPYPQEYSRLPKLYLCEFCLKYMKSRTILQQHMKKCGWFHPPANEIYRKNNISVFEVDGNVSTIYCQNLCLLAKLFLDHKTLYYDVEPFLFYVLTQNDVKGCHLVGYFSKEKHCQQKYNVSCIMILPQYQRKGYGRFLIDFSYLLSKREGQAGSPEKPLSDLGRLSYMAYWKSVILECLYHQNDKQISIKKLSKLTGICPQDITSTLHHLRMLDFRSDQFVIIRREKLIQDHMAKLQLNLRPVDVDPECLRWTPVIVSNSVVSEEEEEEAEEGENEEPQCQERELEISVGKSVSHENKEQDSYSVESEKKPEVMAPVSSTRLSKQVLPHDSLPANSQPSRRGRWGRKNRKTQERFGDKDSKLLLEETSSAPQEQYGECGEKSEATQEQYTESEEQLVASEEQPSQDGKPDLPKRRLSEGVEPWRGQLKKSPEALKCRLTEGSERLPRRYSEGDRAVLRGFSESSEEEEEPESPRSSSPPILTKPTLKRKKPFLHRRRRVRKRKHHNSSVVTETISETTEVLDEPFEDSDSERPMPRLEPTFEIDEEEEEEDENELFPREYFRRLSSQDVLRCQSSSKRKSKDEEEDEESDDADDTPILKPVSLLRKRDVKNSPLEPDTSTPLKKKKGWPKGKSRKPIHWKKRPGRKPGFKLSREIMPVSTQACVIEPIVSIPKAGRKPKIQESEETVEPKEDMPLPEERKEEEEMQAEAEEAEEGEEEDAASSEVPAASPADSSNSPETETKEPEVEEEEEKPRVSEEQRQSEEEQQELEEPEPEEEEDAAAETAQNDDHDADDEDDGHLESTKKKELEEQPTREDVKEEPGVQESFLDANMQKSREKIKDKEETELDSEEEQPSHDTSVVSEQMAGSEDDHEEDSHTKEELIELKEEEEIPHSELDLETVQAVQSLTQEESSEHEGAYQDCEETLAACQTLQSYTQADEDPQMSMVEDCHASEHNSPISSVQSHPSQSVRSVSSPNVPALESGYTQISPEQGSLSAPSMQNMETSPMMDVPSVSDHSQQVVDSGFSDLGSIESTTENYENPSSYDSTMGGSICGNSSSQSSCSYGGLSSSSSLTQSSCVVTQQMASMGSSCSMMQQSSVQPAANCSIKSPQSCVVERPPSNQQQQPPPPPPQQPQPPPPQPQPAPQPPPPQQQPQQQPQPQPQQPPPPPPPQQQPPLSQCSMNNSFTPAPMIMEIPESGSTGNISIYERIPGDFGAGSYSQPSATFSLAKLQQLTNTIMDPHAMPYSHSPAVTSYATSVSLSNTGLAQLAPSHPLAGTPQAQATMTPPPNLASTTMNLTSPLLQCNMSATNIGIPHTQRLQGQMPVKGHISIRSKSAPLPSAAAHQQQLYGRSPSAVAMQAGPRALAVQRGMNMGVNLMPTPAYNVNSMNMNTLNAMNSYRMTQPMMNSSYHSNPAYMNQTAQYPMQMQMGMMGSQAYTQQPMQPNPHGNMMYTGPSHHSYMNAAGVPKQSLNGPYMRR
Text: as §1, §2, §3, §4, §5, §6, §7, §8, §9, §10

Row | Structure (SMILES) | Ki (KAT7) | KAT7/ KAT6A (KAT7) | KAT7/ KAT6B (KAT7) | AUC(0-inf) ([1]; iv, i.v. 1 mg/kg) | clearance ([1]; iv, i.v. 1 mg/kg) | half-life ([1]; iv, i.v. 1 mg/kg) | Vd ([1]; iv, i.v. 1 mg/kg) | AUC(0-inf) ([1]; po, p.o. 2 mg/kg) | bioavailability ([1]; po, p.o. 2 mg/kg) | half-life ([1]; po, p.o. 2 mg/kg) | Ki (KAT5) | KAT5/ KAT6A (KAT5) | KAT5/ KAT6B (KAT5) | Ki (KAT6B) | Ki (KAT6A)
1 | COc1ccc2c(c1S(=O)(=O)Nc1noc3cc(Cn4cccn4)c(F)c(OC)c13)OCCO2 [Compound 28, N-(6-((1H-Pyrazol-1-yl)methyl)-5-fluoro-4-methoxybenzo[d]isoxazol-3-yl)-6-methoxy-2,3-dihydrobenzo[b][1,4]dioxine-5-sulfonamide] | 40.6 nM | 203 | 45 | 22600 ng·h/mL | 0.761 mL/min/kg | 5.87 h | 0.295 L/kg | 42800 ng·h/mL | 94.7% | 6.73 h | 649 nM | 3243 | 721 | 0.9 nM | 0.2 nM
2 | COc1ccc2c(c1S(=O)(=O)Nc1noc3cc(Cn4cccn4)c(F)c(OC)c13)OCCC2=O [Compound 42, N-(6-((1H-Pyrazol-1-yl)methyl)-5-fluoro-4-methoxybenzo[d]isoxazol-3-yl)-7-methoxy-4-oxochromane-8-sulfonamide] |  |  |  | 10200 ng·h/mL | 1.69 mL/min/kg | 3.79 h | 0.261 L/kg | 11300 ng·h/mL | 55% | 3.31 h |  |  |  |  | 
3 | COc1ccc2c(c1S(=O)(=O)Nc1noc3cc(Cn4cccn4)c(F)c(OC)c13)OCC=C2 [Compound 101, N-(6-((1H-Pyrazol-1-yl)methyl)-5-fluoro-4-methoxybenzo[d]isoxazol-3-yl)-7-methoxy-2H-chromene-8-sulfonamide] | 7.39 nM | 35 | 11 | 48100 ng·h/mL | 0.35 mL/min/kg | 8.88 h | 0.237 L/kg | 89100 ng·h/mL | 92.5% | 9.21 h | 79.6 nM | 379 | 122 | 0.65 nM | 0.21 nM
4 | COc1ccc2c(c1S(=O)(=O)Nc1noc3cc(Cn4cccn4)c(F)c(OC)c13)OCCN2C [Compound 109, N-(6-((1H-Pyrazol-1-yl)methyl)-5-fluoro-4-methoxybenzo[d]isoxazol-3-yl)-7-methoxy-4-methyl-3,4-dihydro-2H-benzo[b][1,4]oxazine-8-sulfonamide] | 54.7 nM | 116 | 61 | 90700 ng·h/mL | 0.185 mL/min/kg | 8.57 h | 0.119 L/kg | 187000 ng·h/mL | 96% | 9.73 h | 286 nM | 609 | 318 | 0.9 nM | 0.47 nM
5 | COc1ccc2c(c1S(=O)(=O)Nc1noc3cc(Cn4cccn4)c(F)c(OC)c13)OCCCO2 [Compound 114, N-(6-((1H-Pyrazol-1-yl)methyl)-5-fluoro-4-methoxybenzo[d]isoxazol-3-yl)-7-methoxy-3,4-dihydro-2H-benzo[b][1,4]dioxepine-6-sulfonamide] | 174 nM | 458 | 70 | 39200 ng·h/mL | 0.462 mL/min/kg | 17.2 h | 0.608 L/kg | 97900 ng·h/mL | 144% | 13 h | 1850 nM | 4880 | 745 | 2.49 nM | 0.38 nM
6 | COc1ccc2c(c1S(=O)(=O)Nc1noc3cc(Cn4cccn4)c(F)c(OC)c13)OCCCN2C [Compound 115, N-(6-((1H-Pyrazol-1-yl)methyl)-5-fluoro-4-methoxybenzo[d]isoxazol-3-yl)-8-methoxy-5-methyl-2,3,4,5-tetrahydrobenzo[b][1,4]oxazepine-9-sulfonamide] | 493 nM | 782 | 76 | 47500 ng·h/mL | 0.363 mL/min/kg | 14.3 h | 0.408 L/kg | 109000 ng·h/mL | 105% | 15.9 h | 5040 nM | 7998 | 778 | 6.48 nM | 0.63 nM
7 | COc1ccccc1S(=O)(=O)Nc1noc2cc(Cn3cccn3)cc(OC)c12 [PF-8144, reference compound] | 85.7 nM | 148 | 17 | 28300 ng·h/mL | 0.597 mL/min/kg | 3.16 h | 0.143 L/kg | 55500 ng·h/mL | 98% | 3.79 h | 672 nM | 1159 | 130 | 5.18 nM | 0.58 nM
